Test results reported in ChEMBL document CHEMBL1201862, “PubChem BioAssay data set” (2004).
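Results reflect a 48-hour exposure of cells in 96-well plates to compound at five concentrations. GI50 = concentration required for 50% inhibition of growth.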 Calls of active or inactive are those of the source. Cut-off read from the data, not from the text of the source: active = GI50 up to about 1.1 µM and inactive = higher.

How the values were obtained:
Assay in all cases: NCI anticancer screen, dose series, 48 h
[1] = tested on: CAKI-1
[2] = tested on: BT-549
[3] = tested on: SF-268
[4] = tested on: A549
[5] = tested on: NCI/ADR-RES
[6] = tested on: HT-29
[7] = tested on: EKVX
[8] = tested on: HCT-116
[9] = tested on: DU-145
[10] = tested on: OVCAR-4
[11] = tested on: ACHN
[12] = tested on: KM12
[13] = tested on: MDA-MB-231
[14] = tested on: NCI-H226
[15] = tested on: SF-295
[16] = tested on: MDA-N
[17] = tested on: A498
[18] = tested on: SK-OV-3
[19] = tested on: SR

Measured: GI50

CCCCn1cnc2c(c(CC#N)nn2-c2ccccc2)c1=N
inactive: [1] > 100 µM | [2] 37.8 µM | [3] 71.1 µM | [4] 83.8 µM | [5] 41.2 µM | [6] 33.4 µM | [7] 48.8 µM | [8] 48.6 µM | [9] 76 µM | [10] 29.8 µM | [11] 66.1 µM | [12] 43 µM | [13] 43.1 µM | [14] 79.1 µM | [15] 30.4 µM | [16] 38.1 µM | [17] 24.5 µM | [18] > 100 µM

Cc1cnc2c(c1)C(=O)N(c1ccc(Oc3ccccc3)cc1)S2(=O)=O
inactive: [1] > 100 µM | [2] > 100 µM | [19] > 100 µM | [3] > 100 µM | [4] > 100 µM | [5] > 100 µM | [6] > 100 µM | [7] > 100 µM | [8] > 100 µM | [9] > 100 µM | [10] 83.8 µM | [11] > 100 µM | [12] > 100 µM | [13] > 100 µM | [14] 59.6 µM | [15] > 100 µM | [16] > 100 µM | [18] > 100 µM

COC(=O)/C=C/c1cc2c(cc1-c1c(C(=O)O)cc(OC)c(OC)c1OC)OCO2
inactive: [1] > 10 µM | [2] > 10 µM | [19] > 10 µM | [3] > 10 µM | [4] > 10 µM | [5] > 10 µM | [6] > 10 µM | [8] > 10 µM | [9] > 10 µM | [10] > 10 µM | [11] > 10 µM | [12] > 10 µM | [13] > 10 µM | [15] > 10 µM | [16] > 10 µM | [18] > 10 µM

CN1CN(c2ccccc2)C2(CCN(CCC3COc4ccccc4O3)CC2)C1=O (stereo not given)
inactive: [1] 28.2 µM | [2] 18 µM | [19] 20.9 µM | [3] 33.8 µM | [4] 33.1 µM | [5] 19.7 µM | [6] 3.88 µM | [7] 10.3 µM | [8] 5.92 µM | [9] 14.9 µM | [11] 18.1 µM | [12] 24.7 µM | [13] 31.9 µM | [14] 27.9 µM | [15] 21.4 µM | [16] 19.8 µM | [18] 26.6 µM

CC(C)CCCC(=O)CCCCCCC(=O)CCN(O)C(=O)C(N)CO (stereo not given)
inactive: [1] 16 µM | [2] 14.7 µM | [3] 26.2 µM | [5] 16.1 µM | [6] 18.7 µM | [7] 10.6 µM | [8] 17.7 µM | [9] 18.3 µM | [11] 16.1 µM | [12] 17.6 µM | [13] 16.2 µM | [14] 14 µM | [15] 18.3 µM | [16] 21.8 µM | [17] 16.3 µM | [18] 19.1 µM

C[N+](C)(C)c1ncnc2c1ncn2C1CCCCO1 (stereo not given)
inactive: [1] > 100 µM | [2] > 100 µM | [19] > 100 µM | [3] > 100 µM | [4] > 100 µM | [5] > 100 µM | [6] > 100 µM | [7] > 100 µM | [8] > 100 µM | [9] > 100 µM | [10] > 100 µM | [11] > 100 µM | [12] > 100 µM | [13] > 100 µM | [15] > 100 µM | [16] > 100 µM | [17] > 100 µM | [18] > 100 µM

COC1CC(OC2C(C)OC(OC3C(C)OC(OC4C(C)OC(O[C@H]5CC[C@@]6(C)C(=CC[C@]7(O)[C@@H]6C[C@@H](OC(=O)/C=C/c6ccccc6)[C@@]6(C)[C@]7(O)CC[C@@]6(O)C(C)=O)C5)CC4OC)CC3OC)CC2OC)OC(C)C1O (stereo not given in full)
inactive: [1] > 12.5 µM | [2] > 12.5 µM | [19] > 12.5 µM | [3] > 12.5 µM | [4] > 12.5 µM | [5] > 12.5 µM | [6] > 12.5 µM | [7] > 12.5 µM | [8] > 12.5 µM | [9] > 12.5 µM | [10] > 12.5 µM | [11] > 12.5 µM | [12] 10.1 µM | [13] > 12.5 µM | [14] > 12.5 µM | [15] > 12.5 µM | [16] > 12.5 µM | [18] > 12.5 µM

NC(=O)[N+](=CC(=S)Nc1ccccc1Cl)C(N)=O
inactive: [1] > 100 µM | [2] 86.9 µM | [19] 28.7 µM | [3] > 100 µM | [4] > 100 µM | [5] > 100 µM | [6] > 100 µM | [7] > 100 µM | [8] > 100 µM | [9] > 100 µM | [10] > 100 µM | [11] > 100 µM | [12] > 100 µM | [13] > 100 µM | [14] > 100 µM | [15] > 100 µM | [16] > 100 µM | [18] > 100 µM

Cn1c(=S)[nH]c2sc3c(c2c1=O)CCSC3
inactive: [1] 44.8 µM | [2] 32.4 µM | [3] 26.2 µM | [4] 43.1 µM | [5] 31.3 µM | [6] 29.9 µM | [7] 20.8 µM | [8] 34.8 µM | [9] 24.3 µM | [10] 43 µM | [11] 42.9 µM | [12] 32.1 µM | [13] > 100 µM | [14] 22 µM | [15] 29.9 µM | [16] 54.7 µM | [17] 31.6 µM | [18] 90.8 µM

CCOC(=O)CC(C)C(C#N)(OP1(=O)OC(c2ccccc2)C(C)N1C)c1ccccc1 (stereo not given)
inactive: [1] 81.5 µM | [2] 55.1 µM | [19] 48.6 µM | [3] > 100 µM | [4] 47 µM | [5] 39.5 µM | [6] 57.7 µM | [7] 62.2 µM | [8] 50.2 µM | [9] 97.5 µM | [11] 44.1 µM | [12] 45.8 µM | [13] 59.7 µM | [15] 46.9 µM | [16] > 100 µM | [17] 65.3 µM | [18] 86.7 µM

CCOC(=O)c1c(SCc2cc(=O)[nH]c(=O)[nH]2)n(-c2ccccc2)c(=S)n(-c2ccccc2)c1=O
inactive: [1] > 100 µM | [2] > 100 µM | [3] > 100 µM | [4] > 100 µM | [5] > 100 µM | [6] > 100 µM | [7] > 100 µM | [8] > 100 µM | [9] > 100 µM | [11] > 100 µM | [12] > 100 µM | [13] > 100 µM | [16] > 100 µM | [17] > 100 µM | [18] > 10 µM

CCOC(=O)CC/C(C)=N\n1c(Cc2ccc(Cl)cc2)n[nH]c1=O
inactive: [1] > 100 µM | [2] > 100 µM | [19] > 100 µM | [3] > 100 µM | [4] > 100 µM | [5] > 100 µM | [6] > 100 µM | [8] > 100 µM | [9] > 100 µM | [11] > 100 µM | [12] > 100 µM | [13] > 100 µM | [14] > 100 µM | [15] > 100 µM | [16] > 100 µM

OCCNc1nc2c(N3CCCC3)nc(N3CCNCC3)nc2nc1NCc1ccccc1
inactive: [1] 16.2 µM | [2] 16.4 µM | [19] 13.3 µM | [3] 16.9 µM | [4] 17 µM | [5] 38.5 µM | [6] 8.15 µM | [7] 13.6 µM | [8] 10.1 µM | [9] 11.3 µM | [10] 17.3 µM | [11] 15.5 µM | [12] 11.9 µM | [13] 15.7 µM | [14] 16.3 µM | [15] 17.6 µM | [16] 11.9 µM | [18] 16.8 µM

c1ccc(N2N=C3N(c4ccccc4)C2N3c2ccccc2)cc1
inactive: [1] 88.7 µM | [2] 68.2 µM | [3] 52.8 µM | [4] 47.3 µM | [5] > 100 µM | [6] 29.4 µM | [7] > 100 µM | [8] 31.3 µM | [9] 56.5 µM | [10] 35.6 µM | [11] 40.5 µM | [12] 33.7 µM | [13] 57.3 µM | [15] 36.1 µM | [16] 19.4 µM | [17] 33.1 µM | [18] > 100 µM

C/C=C/C(O)P1(=O)N(Cc2ccccc2)[C@@H]2CCCC[C@H]2N1Cc1ccccc1 (stereo not given in full)
inactive: [1] > 25 µM | [2] > 25 µM | [19] > 25 µM | [3] > 25 µM | [4] > 25 µM | [5] > 25 µM | [6] > 25 µM | [7] > 25 µM | [8] > 25 µM | [9] > 25 µM | [10] > 25 µM | [11] > 25 µM | [12] > 25 µM | [13] > 25 µM | [14] > 25 µM | [15] > 25 µM | [16] > 25 µM | [18] > 25 µM

CC(=O)O[C@H]1CCn2c3c(c(C)c21)C(=O)C(N1CC1)=C(C)C3=O
inactive: [1] > 10 µM | [2] > 10 µM | [19] > 10 µM | [3] > 10 µM | [4] 3.19 µM | [5] > 10 µM | [6] 2.84 µM | [7] > 10 µM | [8] > 10 µM | [9] 4.21 µM | [10] > 10 µM | [11] > 10 µM | [12] > 10 µM | [13] > 10 µM | [14] > 10 µM | [15] 5.11 µM | [16] > 10 µM | [18] > 10 µM
